# Results: publication PMC8152971, “Valeriana rigida Ruiz & Pav. Root Extract: A New Source of Caffeoylquinic Acids with Antioxidant and Aldose Reductase Inhibitory Activities” (Foods, 2021)
# Marks after values point to notes of the source that are not given here.
# Experiments:
# [1] = Partition coefficient (K upper/lower) in biphasic CCC solvent systems; format: physicochemical
# Method: The solvent system was screened via HPLC and evaluated according to the partition coefficient (K value) of the target compounds on the principle introduced by Ito [32]. Briefly, four solvent systems comprising EtOAc, n-BuOH, […] solution to 29 mM, and then the corresponding K values of the target compounds under acidic (Kacid) or basic (Kbase) conditions were determined, as previously described: each acidified or basified solvent system was partitioned to upper layer and lower layer. Thereafter, the extract (about 1–2 mg) was prepared in a 1.5 mL tube and dissolved by adding equal volumes (each 500 µL) of the upper layer and lower layers, which were mixed by a vortex mixer and centrifuged for about 20 s using a C1301 Mini Centrifuge (Labnet International, South Korea). Next, the upper and lower phase sample solutions were respectively pipetted (each 200 µL) into a new 1.5 mL-tube and evaporated by nitrogen gas. Each sample residue was redissolved using 200 µL of MeOH and subjected to HPLC analysis with an injection volume of 20 µL. The K value was calculated as K = Aupper/Alower, where Aupper and Alower are the HPLC peak areas of the target component in the upper and lower phases, respectively.
# [2] = Hypochlorous acid (HOCl) scavenging assay
# Method: The HOCl scavenging assay was adapted from a previous study using 1,8-diaminonaphthalene as a fluorescence probe for hypochlorite. […] Next, the fluorescence intensity (λex = 360 ± 20 nm, λem = 460 ± 20 nm) was immediately measured using a microplate fluorescence reader (FLx800; Bio-Tek, Winooski, VT, USA). Trolox (final concentration 25–100 µg/mL) was used as a reference antioxidant.
# [3] = target: T1, rat lens AR homogenate (aldose reductase) (Rattus norvegicus, UniProt P07943); assay: AR inhibition assay; format: biochemical, Sprague–Dawley rats
# T1 construct: the lenses were removed from the eyes, ground in a mortar; from tissue; host or cells: lens of Sprague–Dawley rats
# Method: The eyes of 10-week Sprague–Dawley rats (250–280 g) were removed and frozen at −70 °C before use. Thereafter, the lenses were removed from the eyes, ground in a mortar (precooled at −70 °C), and extracted using 0.1 M PBS of pH 6.2 (around 0.5 mL of buffer per two frozen rat lenses).
# The AR inhibitory activities of the extract and the separated compounds were determined as described previously. […] Next, the reaction was initiated by adding 20 µL of the substrate (DL-glyceraldehyde dimmer, 25 mM in 0.1 M PBS of pH 7.0), and the values were further measured for 6 min at 340 nm (OD340) using an Epoch microplate spectrophotometer (BioTek Instruments, Winooski, VT, USA). […] The DMSO used for sample preparation was less than 0.4% (v/v) in the reaction system.
# [4] = DPPH radical scavenging assay; conditions: Trolox equivalent antioxidant capacity, mean ± SD, n ≥ 3
# Method: The experiment was carried out as previously described. […] Thereafter, the absorbance was measured using a microplate reader (EL800, Bio-Tek Instruments, Winooski, VT, USA) at 570 nm.
# [5] = ABTS radical scavenging assay; conditions: Trolox equivalent antioxidant capacity, mean ± SD, n ≥ 3
# Method: The experiment was conducted as previously described. In brief, 3.5 mM of potassium persulfate aqueous solution was used to prepare 0.2 mM of ABTS diammonium salt. The solution was diluted 10-fold using distilled water and allowed to produce ABTS radicals (ABTS^+) by keeping the solution in the dark for 14 h at room temperature. […] Equation (1) was used to calculate the ABTS^+ scavenging activity (%), where Acontrol is the absorbance of ABTS^+ solution free of samples, Asample is the absorbance of ABTS^+ solution incubated with a sample, Ablank1 is the absorbance of the test sample free of ABTS^+ solution, and Ablank2 is the absorbance of the diluted potassium persulfate solution.
# [6] = Oxygen radical absorbance capacity (ORAC) assay; conditions: Trolox equivalent antioxidant capacity, mean ± SD, n ≥ 3
# Method: The oxygen radical absorbance capacity (ORAC) assay was performed as previously described. Briefly, 0. […] Next, 60 µL of AAPH (40 mM) was added to generate peroxyl radicals to initiate the reaction.
smiles,measurement,setting,value
"O=C(/C=C/c1ccc(O)c(O)c1)O[C@@H]1[C@H](O)C[C@@](O)(C(=O)O)C[C@H]1OC(=O)/C=C/c1ccc(O)c(O)c1 [4,5-diCQA (6), 4,5-di-O-caffeoylquinic acid]",K(upper/lower) Value,"[1]; EtOAc/H2O, 1:1, 30 mM ammonia",0.01
same,K(upper/lower) Value,"[1]; EtOAc/H2O, 1:1, 208 mM formic acid",12.24
same,K(upper/lower) Value,"[1]; EtOAc/n-BuOH/H2O, 2:3:5, 30 mM ammonia",0.13
same,K(upper/lower) Value,"[1]; EtOAc/n-BuOH/H2O, 2:3:5, 208 mM formic acid",45.95
same,K(upper/lower) Value,"[1]; EtOAc/n-BuOH/H2O, 3:2:5, 30 mM ammonia",0.05
same,K(upper/lower) Value,"[1]; EtOAc/n-BuOH/H2O, 3:2:5, 208 mM formic acid",41.13
same,K(upper/lower) Value,"[1]; EtOAc/n-BuOH/H2O, 4:1:5, 30 mM ammonia",0.01
same,K(upper/lower) Value,"[1]; EtOAc/n-BuOH/H2O, 4:1:5, 208 mM formic acid",22.17
same,HOCl Scavenging Activity Inhibition (%),[2]; 3.125 µM,48.80 ± 5.62%
same,HOCl Scavenging Activity Inhibition (%),[2]; 6.25 µM,51.23 ± 2.14%
same,HOCl Scavenging Activity Inhibition (%),[2]; 12.5 µM,65.80 ± 4.06%
same,IC50,[2]; linear regression,4610 nM
same,inhibition at 0.098 µM,"[3]; 0.098 µM, read-out: AR inhibitory Activity Inhibition (%)",23.7 ± 2.7%
same,inhibition at 0.195 µM,"[3]; 0.195 µM, read-out: AR inhibitory Activity Inhibition (%)",44.4 ± 4.45%
same,inhibition at 0.391 µM,"[3]; 0.391 µM, read-out: AR inhibitory Activity Inhibition (%)",65.9 ± 2.21%
same,IC50,"[3]; rat lens AR, read-out: AR inhibitory Activity IC50",230 nM
same,"TE, DPPH",[4],1.23 ± 0.07 ^a µmol Trolox Equivalents Per µmol Compound
same,"TE, ABTS",[5],1.22 ± 0.03 ^b µmol Trolox Equivalents Per µmol Compound
same,"TE, ORAC",[6],3.70 ± 0.34 ^a µmol Trolox Equivalents Per µmol Compound
